Measured values taken from paper PMC6499206, “Quantification of Volatile Metabolites Derived From Garlic (Allium sativum) in Human Urine” (Frontiers in Nutrition, 2019).

Test: Quantification of garlic-derived metabolites in human urine after ingestion of 3 g raw garlic (SIDA, SAFE, HRGC-MS / HRGC-GC-MS)
Type: in vivo
Conditions: for metabolite concentration in urine / metabolite concentration in urine, creatinine-normalized: 3 g raw garlic
Method in brief: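 Quantification used stable isotope dilution (²H3-AMS, -AMSO, -AMSO2 standards), SAFE distillation at 50°C of DCM-treated urine, and GC-MS on a DB-FFAP column, with creatinine from the Jaffé reaction at 492 nm. Urine came from 18 volunteers avoiding sulfur-rich foods, sampled before and up to 24 h after eating 3 g raw garlic.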

concentration in urine compared with human milk (3 g raw garlic in both studies, milk data ref 20): about three times as high
metabolite concentration in urine (U I, 0.5 h post (0.55 h)): 168.4 µg/kg
metabolite concentration in urine, creatinine-normalized (U I, 0.5 h post (0.55 h)): 23.6 µg/mmol creatinine
metabolite concentration in urine (U I, 1 h post (1.03 h)): 191.0 µg/kg
metabolite concentration in urine, creatinine-normalized (U I, 1 h post (1.03 h)): 205.9 µg/mmol creatinine
metabolite concentration in urine (U I, 2 h post (2.05 h)): 227.6 µg/kg
metabolite concentration in urine, creatinine-normalized (U I, 2 h post (2.05 h)): 112.5 µg/mmol creatinine
metabolite concentration in urine (U I, 4 h post (4.05 h)): 165.7 µg/kg
metabolite concentration in urine, creatinine-normalized (U I, 4 h post (4.05 h)): 19.1 µg/mmol creatinine
metabolite concentration in urine (U I, 6 h post (6.05 h)): 119.1 µg/kg
metabolite concentration in urine, creatinine-normalized (U I, 6 h post (6.05 h)): 13.2 µg/mmol creatinine
metabolite concentration in urine (U I, 8 h post (8.05 h)): 41.8 µg/kg
metabolite concentration in urine, creatinine-normalized (U I, 8 h post (8.05 h)): 5.8 µg/mmol creatinine
metabolite concentration in urine (U I, 24 h post (25.55 h)): 1.6 µg/kg
metabolite concentration in urine, creatinine-normalized (U I, 24 h post (25.55 h)): 0.3 µg/mmol creatinine
metabolite concentration in urine (U I, pre (-0.03 h)): < LOD^2
metabolite concentration in urine, creatinine-normalized (U I, pre (-0.03 h)): < LOD^2
metabolite concentration in urine (U II, 0.5 h post (0.50 h)): 147.7 µg/kg
metabolite concentration in urine, creatinine-normalized (U II, 0.5 h post (0.50 h)): 14.0 µg/mmol creatinine
metabolite concentration in urine (U II, 1 h post (1.00 h)): 133.4 µg/kg
metabolite concentration in urine, creatinine-normalized (U II, 1 h post (1.00 h)): 51.2 µg/mmol creatinine
metabolite concentration in urine (U II, 2 h post (2.00 h)): 63.7 µg/kg
metabolite concentration in urine, creatinine-normalized (U II, 2 h post (2.00 h)): 62.6 µg/mmol creatinine
metabolite concentration in urine (U II, 4 h post (4.00 h)): 64.8 µg/kg
metabolite concentration in urine, creatinine-normalized (U II, 4 h post (4.00 h)): 12.0 µg/mmol creatinine
metabolite concentration in urine (U II, 6 h post (6.00 h)): 33.4 µg/kg
metabolite concentration in urine, creatinine-normalized (U II, 6 h post (6.00 h)): 3.7 µg/mmol creatinine
metabolite concentration in urine (U II, 8 h post (8.00 h)): 15.2 µg/kg
metabolite concentration in urine, creatinine-normalized (U II, 8 h post (8.00 h)): 1.8 µg/mmol creatinine
metabolite concentration in urine (U II, 24 h post (24.12 h)): traces^2
metabolite concentration in urine, creatinine-normalized (U II, 24 h post (24.12 h)): traces^2
metabolite concentration in urine (U II, pre (-0.13 h)): < LOD^2
metabolite concentration in urine, creatinine-normalized (U II, pre (-0.13 h)): < LOD^2
metabolite concentration in urine (U III, 0.5 h post (0.53 h)): 124.4 µg/kg
metabolite concentration in urine, creatinine-normalized (U III, 0.5 h post (0.53 h)): 74.5 µg/mmol creatinine
metabolite concentration in urine (U III, 1 h post (1.07 h)): 136.4 µg/kg
metabolite concentration in urine, creatinine-normalized (U III, 1 h post (1.07 h)): 192.7 µg/mmol creatinine
metabolite concentration in urine (U III, 2 h post (2.18 h)): 214.7 µg/kg
metabolite concentration in urine, creatinine-normalized (U III, 2 h post (2.18 h)): 133.1 µg/mmol creatinine
metabolite concentration in urine (U III, 4 h post (4.35 h)): 123.7 µg/kg
metabolite concentration in urine, creatinine-normalized (U III, 4 h post (4.35 h)): 47.0 µg/mmol creatinine
metabolite concentration in urine (U III, 6 h post (6.35 h)): 62.3 µg/kg
metabolite concentration in urine, creatinine-normalized (U III, 6 h post (6.35 h)): 12.2 µg/mmol creatinine
metabolite concentration in urine (U III, 8 h post (8.43 h)): 29.0 µg/kg
metabolite concentration in urine, creatinine-normalized (U III, 8 h post (8.43 h)): 5.2 µg/mmol creatinine
metabolite concentration in urine (U III, 24 h post (23.90 h)): 3.0 µg/kg
metabolite concentration in urine, creatinine-normalized (U III, 24 h post (23.90 h)): 0.5 µg/mmol creatinine
metabolite concentration in urine (U III, pre (-0.03 h)): 4.6 µg/kg
metabolite concentration in urine, creatinine-normalized (U III, pre (-0.03 h)): 0.8 µg/mmol creatinine
metabolite concentration in urine (U IV, 0.5 h post (0.55 h)): 144.3 µg/kg
metabolite concentration in urine, creatinine-normalized (U IV, 0.5 h post (0.55 h)): 30.7 µg/mmol creatinine
metabolite concentration in urine (U IV, 1 h post (1.05 h)): 141.0 µg/kg
metabolite concentration in urine, creatinine-normalized (U IV, 1 h post (1.05 h)): 117.5 µg/mmol creatinine
metabolite concentration in urine (U IV, 2 h post (2.12 h)): 129.7 µg/kg
metabolite concentration in urine, creatinine-normalized (U IV, 2 h post (2.12 h)): 82.3 µg/mmol creatinine
metabolite concentration in urine (U IV, 4 h post (4.05 h)): 108.9 µg/kg
metabolite concentration in urine, creatinine-normalized (U IV, 4 h post (4.05 h)): 22.6 µg/mmol creatinine
metabolite concentration in urine (U IV, 6 h post (6.08 h)): 63.5 µg/kg
metabolite concentration in urine, creatinine-normalized (U IV, 6 h post (6.08 h)): 4.6 µg/mmol creatinine
metabolite concentration in urine (U IV, 8 h post (8.05 h)): 31.9 µg/kg
metabolite concentration in urine, creatinine-normalized (U IV, 8 h post (8.05 h)): 6.7 µg/mmol creatinine
metabolite concentration in urine (U IV, 24 h post (24.03 h)): 3.8 µg/kg
metabolite concentration in urine, creatinine-normalized (U IV, 24 h post (24.03 h)): 0.4 µg/mmol creatinine
metabolite concentration in urine (U IV, pre (-0.05 h)): < LOD^2
metabolite concentration in urine, creatinine-normalized (U IV, pre (-0.05 h)): < LOD^2
metabolite concentration in urine (U IX, 0.5 h post (0.67 h)): 164.4 µg/kg
metabolite concentration in urine, creatinine-normalized (U IX, 0.5 h post (0.67 h)): 156.1 µg/mmol creatinine
metabolite concentration in urine (U IX, 1 h post (1.17 h)): 332.3 µg/kg
metabolite concentration in urine, creatinine-normalized (U IX, 1 h post (1.17 h)): 344.1 µg/mmol creatinine
metabolite concentration in urine (U IX, 2 h post (1.83 h)): 337.6 µg/kg
metabolite concentration in urine, creatinine-normalized (U IX, 2 h post (1.83 h)): 320.5 µg/mmol creatinine
metabolite concentration in urine (U IX, 4 h post (4.17 h)): 293.5 µg/kg
metabolite concentration in urine, creatinine-normalized (U IX, 4 h post (4.17 h)): 56.6 µg/mmol creatinine
metabolite concentration in urine (U IX, 6 h post (6.08 h)): 182.9 µg/kg
metabolite concentration in urine, creatinine-normalized (U IX, 6 h post (6.08 h)): 57.5 µg/mmol creatinine
metabolite concentration in urine (U IX, 8 h post (8.08 h)): 100.1 µg/kg
metabolite concentration in urine, creatinine-normalized (U IX, 8 h post (8.08 h)): 7.2 µg/mmol creatinine
metabolite concentration in urine (U IX, 24 h post (24.00 h)): 30.4 µg/kg
metabolite concentration in urine, creatinine-normalized (U IX, 24 h post (24.00 h)): 3.5 µg/mmol creatinine
metabolite concentration in urine (U IX, pre (-0.08 h)): < LOD^2
metabolite concentration in urine, creatinine-normalized (U IX, pre (-0.08 h)): < LOD^2
metabolite concentration in urine (U V, 0.5 h post (0.50 h)): 84.4 µg/kg
metabolite concentration in urine, creatinine-normalized (U V, 0.5 h post (0.50 h)): 123.5 µg/mmol creatinine
metabolite concentration in urine (U V, 1 h post (1.00 h)): 122.6 µg/kg
metabolite concentration in urine, creatinine-normalized (U V, 1 h post (1.00 h)): 146.3 µg/mmol creatinine
metabolite concentration in urine (U V, 2 h post (2.00 h)): 104.6 µg/kg
metabolite concentration in urine, creatinine-normalized (U V, 2 h post (2.00 h)): 124.9 µg/mmol creatinine
metabolite concentration in urine (U V, 4 h post (4.00 h)): 104.9 µg/kg
metabolite concentration in urine, creatinine-normalized (U V, 4 h post (4.00 h)): 34.0 µg/mmol creatinine
metabolite concentration in urine (U V, 6 h post (6.00 h)): 68.8 µg/kg
metabolite concentration in urine, creatinine-normalized (U V, 6 h post (6.00 h)): 13.8 µg/mmol creatinine
metabolite concentration in urine (U V, 8 h post (8.00 h)): 29.0 µg/kg
metabolite concentration in urine, creatinine-normalized (U V, 8 h post (8.00 h)): 13.4 µg/mmol creatinine
metabolite concentration in urine (U V, 24 h post (24.00 h)): 1.9 µg/kg
metabolite concentration in urine, creatinine-normalized (U V, 24 h post (24.00 h)): 0.3 µg/mmol creatinine
metabolite concentration in urine (U V, pre (-0.05 h)): < LOD^2
metabolite concentration in urine, creatinine-normalized (U V, pre (-0.05 h)): < LOD^2
metabolite concentration in urine (U VI, 0.5 h post (0.50 h)): 193.1 µg/kg
metabolite concentration in urine, creatinine-normalized (U VI, 0.5 h post (0.50 h)): 88.3 µg/mmol creatinine
metabolite concentration in urine (U VI, 1 h post (1.00 h)): 203.5 µg/kg
metabolite concentration in urine, creatinine-normalized (U VI, 1 h post (1.00 h)): 169.6 µg/mmol creatinine
metabolite concentration in urine (U VI, 2 h post (2.00 h)): 143.4 µg/kg
metabolite concentration in urine, creatinine-normalized (U VI, 2 h post (2.00 h)): 129.2 µg/mmol creatinine
metabolite concentration in urine (U VI, 4 h post (4.00 h)): 134.9 µg/kg
metabolite concentration in urine, creatinine-normalized (U VI, 4 h post (4.00 h)): 39.0 µg/mmol creatinine
metabolite concentration in urine (U VI, 6 h post (6.00 h)): 188.9 µg/kg
metabolite concentration in urine, creatinine-normalized (U VI, 6 h post (6.00 h)): 35.0 µg/mmol creatinine
metabolite concentration in urine (U VI, 8 h post (8.00 h)): 79.0 µg/kg
metabolite concentration in urine, creatinine-normalized (U VI, 8 h post (8.00 h)): 15.8 µg/mmol creatinine
metabolite concentration in urine (U VI, 24 h post (24.17 h)): 139.8 µg/kg
metabolite concentration in urine, creatinine-normalized (U VI, 24 h post (24.17 h)): 9.6 µg/mmol creatinine
metabolite concentration in urine (U VI, pre (-0.05 h)): < LOD^2
metabolite concentration in urine, creatinine-normalized (U VI, pre (-0.05 h)): < LOD^2
metabolite concentration in urine (U VII, 0.5 h post (0.50 h)): 133.2 µg/kg
metabolite concentration in urine, creatinine-normalized (U VII, 0.5 h post (0.50 h)): 125.0 µg/mmol creatinine
Structure (SMILES): C=CC[S+](C)[O-] (stereo not shown) [AMSO, allyl methyl sulfoxide]
